# Tested on: HEL
# Assay: cell viability (% survival relative to DMSO control, bortezomib = 0%); higher = less cytotoxic
# Conditions: 100 nM; 72 h
# Procedure, shortened: (§1)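 In 384-well plates pre-printed with compounds at 1, 10, 100, 1000 or 10000 nM, duplicate wells received cells from 10 AML and 5 CML lines at densities within the linear growth range. The plates stayed at 37 °C with 5% CO2 for 72 h before CellTiter-Glo luminescence was recorded. Each entry is averaged percent survival. Scaling placed vehicle at 100% and a 10 µM positive control at 0%.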
row,Structure (SMILES),cell viability
1,CCCCC/C=C\C/C=C\C/C=C\C/C=C\CCCCN1C(=O)C=CC1=O [N-Arachidonylmaleimide],97.9%
2,CCCCCCCCCCC[C@@H](C[C@@H]1OC(=O)[C@H]1CCCCCC)OC(=O)[C@H](CC(C)C)NC=O [Orlistat],95.3%
3,COc1ccc(C(=O)Nc2c(Cl)cncc2Cl)cc1OC1CCCC1 [Piclamilast],102%
4,COc1cc(/C=C/C(=O)N2CCC=CC2=O)cc(OC)c1OC [Piperlongumine],103%
5,O=C(NNc1ccccc1)c1ccncc1 [PluriSln 1],96.8%
6,CC(C)c1nc(CN(C)C(=O)N[C@H](C(=O)N[C@@H](Cc2ccccc2)C[C@H](O)[C@H](Cc2ccccc2)NC(=O)OCc2cncs2)C(C)C)cs1 [Ritonavir],107%
7,C=C(C)[C@H]1Cc2c(ccc3c2O[C@@H]2COc4cc(OC)c(OC)cc4[C@@H]2C3=O)O1 [Rotenone],63.2%
8,Oc1ccc(Nc2nc(-c3ccc(Cl)cc3)cs2)cc1 [SKI II],111%
9,O=C(O)c1cc(N=Nc2ccc(S(=O)(=O)Nc3ccccn3)cc2)ccc1O [Sulfasalazine],114%

# Same assay, conditions: 1000 nM; 72 h
row,Structure (SMILES),cell viability
1,CCCCN1C[C@H](O)[C@@H](O)[C@H](O)[C@H]1CO [Miglustat],101%
2,C=C(C=NNC(=N)N)NNC(=N)N [Mitoguazone],93.2%
3,CCCCC/C=C\C/C=C\C/C=C\C/C=C\CCCCN1C(=O)C=CC1=O [N-Arachidonylmaleimide],103%
4,CCCCCCCCCCC[C@@H](C[C@@H]1OC(=O)[C@H]1CCCCCC)OC(=O)[C@H](CC(C)C)NC=O [Orlistat],101%
5,COc1ccc(C(=O)Nc2c(Cl)cncc2Cl)cc1OC1CCCC1 [Piclamilast],119%
6,COc1cc(/C=C/C(=O)N2CCC=CC2=O)cc(OC)c1OC [Piperlongumine],97.5%
7,O=C(NNc1ccccc1)c1ccncc1 [PluriSln 1],105%
8,CC(C)c1nc(CN(C)C(=O)N[C@H](C(=O)N[C@@H](Cc2ccccc2)C[C@H](O)[C@H](Cc2ccccc2)NC(=O)OCc2cncs2)C(C)C)cs1 [Ritonavir],94.2%
9,C=C(C)[C@H]1Cc2c(ccc3c2O[C@@H]2COc4cc(OC)c(OC)cc4[C@@H]2C3=O)O1 [Rotenone],12.3%
10,Oc1ccc(Nc2nc(-c3ccc(Cl)cc3)cs2)cc1 [SKI II],95.5%
11,O=C(O)c1cc(N=Nc2ccc(S(=O)(=O)Nc3ccccn3)cc2)ccc1O [Sulfasalazine],94%

# Same assay, conditions: 10000 nM; 72 h
row,Structure (SMILES),cell viability
1,CCCCN1C[C@H](O)[C@@H](O)[C@H](O)[C@H]1CO [Miglustat],93.6%
2,C=C(C=NNC(=N)N)NNC(=N)N [Mitoguazone],50.4%
3,CCCCC/C=C\C/C=C\C/C=C\C/C=C\CCCCN1C(=O)C=CC1=O [N-Arachidonylmaleimide],89.7%
4,CCCCCCCCCCC[C@@H](C[C@@H]1OC(=O)[C@H]1CCCCCC)OC(=O)[C@H](CC(C)C)NC=O [Orlistat],90.8%
5,COc1ccc(C(=O)Nc2c(Cl)cncc2Cl)cc1OC1CCCC1 [Piclamilast],109%
6,COc1cc(/C=C/C(=O)N2CCC=CC2=O)cc(OC)c1OC [Piperlongumine],-0.0957%
7,O=C(NNc1ccccc1)c1ccncc1 [PluriSln 1],78.1%
8,CC(C)c1nc(CN(C)C(=O)N[C@H](C(=O)N[C@@H](Cc2ccccc2)C[C@H](O)[C@H](Cc2ccccc2)NC(=O)OCc2cncs2)C(C)C)cs1 [Ritonavir],87.8%
9,C=C(C)[C@H]1Cc2c(ccc3c2O[C@@H]2COc4cc(OC)c(OC)cc4[C@@H]2C3=O)O1 [Rotenone],1.89%
10,Oc1ccc(Nc2nc(-c3ccc(Cl)cc3)cs2)cc1 [SKI II],5.26%
11,O=C(O)c1cc(N=Nc2ccc(S(=O)(=O)Nc3ccccn3)cc2)ccc1O [Sulfasalazine],111%

# Tested on: HL-60
# Assay: as above
# Conditions: 1 nM; 72 h
# Procedure, shortened: as §1
row,Structure (SMILES),cell viability
1,CCCCN1C[C@H](O)[C@@H](O)[C@H](O)[C@H]1CO [Miglustat],87.6%
2,C=C(C=NNC(=N)N)NNC(=N)N [Mitoguazone],85.2%
3,CCCCC/C=C\C/C=C\C/C=C\C/C=C\CCCCN1C(=O)C=CC1=O [N-Arachidonylmaleimide],111%
4,CCCCCCCCCCC[C@@H](C[C@@H]1OC(=O)[C@H]1CCCCCC)OC(=O)[C@H](CC(C)C)NC=O [Orlistat],122%
5,COc1ccc(C(=O)Nc2c(Cl)cncc2Cl)cc1OC1CCCC1 [Piclamilast],87.1%
6,COc1cc(/C=C/C(=O)N2CCC=CC2=O)cc(OC)c1OC [Piperlongumine],92.7%
7,O=C(NNc1ccccc1)c1ccncc1 [PluriSln 1],102%
8,CC(C)c1nc(CN(C)C(=O)N[C@H](C(=O)N[C@@H](Cc2ccccc2)C[C@H](O)[C@H](Cc2ccccc2)NC(=O)OCc2cncs2)C(C)C)cs1 [Ritonavir],99%
9,C=C(C)[C@H]1Cc2c(ccc3c2O[C@@H]2COc4cc(OC)c(OC)cc4[C@@H]2C3=O)O1 [Rotenone],97.1%
10,Oc1ccc(Nc2nc(-c3ccc(Cl)cc3)cs2)cc1 [SKI II],88.9%
11,O=C(O)c1cc(N=Nc2ccc(S(=O)(=O)Nc3ccccn3)cc2)ccc1O [Sulfasalazine],99.4%

# Same assay, conditions: 10 nM; 72 h
row,Structure (SMILES),cell viability
1,CCCCN1C[C@H](O)[C@@H](O)[C@H](O)[C@H]1CO [Miglustat],81.8%
2,C=C(C=NNC(=N)N)NNC(=N)N [Mitoguazone],73.2%
3,CCCCC/C=C\C/C=C\C/C=C\C/C=C\CCCCN1C(=O)C=CC1=O [N-Arachidonylmaleimide],94.7%
4,CCCCCCCCCCC[C@@H](C[C@@H]1OC(=O)[C@H]1CCCCCC)OC(=O)[C@H](CC(C)C)NC=O [Orlistat],105%
5,COc1ccc(C(=O)Nc2c(Cl)cncc2Cl)cc1OC1CCCC1 [Piclamilast],103%
6,COc1cc(/C=C/C(=O)N2CCC=CC2=O)cc(OC)c1OC [Piperlongumine],100%
7,O=C(NNc1ccccc1)c1ccncc1 [PluriSln 1],94.1%
8,CC(C)c1nc(CN(C)C(=O)N[C@H](C(=O)N[C@@H](Cc2ccccc2)C[C@H](O)[C@H](Cc2ccccc2)NC(=O)OCc2cncs2)C(C)C)cs1 [Ritonavir],101%
9,C=C(C)[C@H]1Cc2c(ccc3c2O[C@@H]2COc4cc(OC)c(OC)cc4[C@@H]2C3=O)O1 [Rotenone],79.3%
10,Oc1ccc(Nc2nc(-c3ccc(Cl)cc3)cs2)cc1 [SKI II],110%
11,O=C(O)c1cc(N=Nc2ccc(S(=O)(=O)Nc3ccccn3)cc2)ccc1O [Sulfasalazine],71.4%

# Same assay, conditions: 100 nM; 72 h
row,Structure (SMILES),cell viability
1,CCCCN1C[C@H](O)[C@@H](O)[C@H](O)[C@H]1CO [Miglustat],98.7%
2,C=C(C=NNC(=N)N)NNC(=N)N [Mitoguazone],148%
3,CCCCC/C=C\C/C=C\C/C=C\C/C=C\CCCCN1C(=O)C=CC1=O [N-Arachidonylmaleimide],81.8%
4,CCCCCCCCCCC[C@@H](C[C@@H]1OC(=O)[C@H]1CCCCCC)OC(=O)[C@H](CC(C)C)NC=O [Orlistat],108%
5,COc1ccc(C(=O)Nc2c(Cl)cncc2Cl)cc1OC1CCCC1 [Piclamilast],65.2%
6,COc1cc(/C=C/C(=O)N2CCC=CC2=O)cc(OC)c1OC [Piperlongumine],102%
7,O=C(NNc1ccccc1)c1ccncc1 [PluriSln 1],90.5%
8,CC(C)c1nc(CN(C)C(=O)N[C@H](C(=O)N[C@@H](Cc2ccccc2)C[C@H](O)[C@H](Cc2ccccc2)NC(=O)OCc2cncs2)C(C)C)cs1 [Ritonavir],113%
